Converted amounts (≈) assume the structure as drawn. Where two headings read alike, the source gives them in different places.
Experiments:
[1] = test system: muscle group (gastrocnemius, plantaris and soleus) of the immobilized right rear extremity; experiment: rat muscle function test: direct electrical stimulation of muscle group after 3 weeks' immobilization; type: in vivo, male Wistar rats; conditions: oral, 1x per day for 3 weeks, as a rule 25 mg/kg, ≤-12% classified as active; for Work (performed work, right/left difference): isotonic stimulation, control approx. -25%; for Force (force under the contraction curve, right/left difference): isometric stimulation, control difference approx. 25%
Source text: (§1) 1. Activity in the rat muscle function test
(§2) Male Wistar rats (body weight about 300 g) were kept under standard conditions with feed and water ad libitum. The right rear extremity was immobilized by fitting a kind of "shoe" to the animals under short-term anaesthesia. Two ergonomically fitted halves of the "shoe" were cast from a liquid plastic material which is also used for the production of dental prostheses, these were put onto the animal under brief anaesthesia and joined with the aid of a wire. The material is light but hard, so that the animals cannot gnaw the material, and the "shoe" can be opened at any time to examine the condition of the immobilized extremity. The two halves were moreover padded out with chamois leather in order to avoid compressions and possible injuries due to rubbing. The system also has the advantage that the angle of immobilization is standardized in all animals; this would not be possible with a plaster cast. The chosen angle allows the animals to take up a normal sitting position despite the "shoe" and also to carry the body weight using this extremity. Only complete stretching or bending of the leg is impossible.
(§3) After 3 weeks' immobilization of the right rear extremity and simultaneous oral administration of test preparations (1× per day using a stomach tube; as a rule 25 mg/kg of body weight, in carboxymethylcellulose, the animals were weighed and anaesthetized with pentobarbital (35 mg/kg i.p.). Functional parameters were measured during direct electrical stimulation of a muscle group (gastrocnemius, plantaris and soleus). This muscle group, merely called "muscle" in the following, was exposed at the ankle tendon and tied to a force transducer via the tendon.
To determine the contractile force, the muscles were stimulated isometrically, i.e. a preload of 0.5N was applied and the muscle was stimulated by means of a series of electrical pulses, which led to a maximum contraction, every 0.7 sec for 80 msec for a period of 15 min. […] The area under this contraction curve was evaluated and the difference in percent between the right atrophic and left normal muscle compared (force under the contraction curve as difference in percent (Δ%)). The difference in the control group is approximately 25%.
An isotonic muscle stimulation was used to determine the performed work of the muscle over time. In this type of measurement, the shortening of the muscle during contraction is used as a basis. To this end, a preload which corresponds to the body weight was applied to the muscles. A series of stimulation pulses (80 msec) were triggered every 3 sec and the muscle was stimulated for 15 min. The data (contraction force and distance travelled) were converted to the work performed in the unit J using an automated system. The difference in the work performed between the immobilized atrophic and the normal muscle in the control animals was approximately -25%.
Values which are positive indicate that the functional parameters of the immobilized muscle were better than those of the contralateral normal muscle.

[2] = test system: isolated guinea pig lung strips, Platelet activating factor (PAF); experiment: antagonist of PAF-induced contraction of isolated guinea pig lung strips; type: cell-based; conditions: Cavia porcellus, read-out: Anticontractile action (lung), PAF: concentration range corresponding to the IC50 value
Source text: 4. Activity as an antagonist of the contraction of isolated guinea pig lung strips
The test carried out is based on the same principle as the test indicated in the pharmacological test 3; however, lung strips are used here.
Preparation of the organ sections and experimental procedure:
The guinea pig is sacrificed under laughing gas anaesthesia. The entire pulmonary tract is exposed starting from the trachea. The lobes of the lung are cut in a circular fashion such that 3 mm wide strips are formed. The strips of the upper lobes are divided in order to obtain a total of six approximately equal size strips. The strips are suspended in the organ baths under a preload of 4 g. The nutrient solutions used are modified Krebs Henseleit solutions. When using "Platelet activating factor" (PAF) as an […], the composition of this solution corresponds to that for the agonist SP in "Test 3"; for the agonist LTD4 a Krebs Henseleit solution as in the case of the agonist KCl (Test 3) is used. 95% by volume O2, 5% by volume CO2 is used for bubbling through the bath; the bath temperature is 37° C. The experimental procedure is carried out in a therapeutically cumulative methodology, using the dosage graduations 1, 3, 6 and 10 μg/ml.
The experimental animals, organ bath, vehicles and manner of administration correspond to that stated in pharmacological test 3.
All numerical values are indicated in the unit μg/ml and relate to the concentration range of tested compound of the formula I (see example numbers in Table 1) which is necessary in order to cause a contraction which corresponds to the IC50 value.

soleus muscle = experiment: rat muscle function test: muscle weight (atrophy of immobilized extremity); type: in vivo, male Wistar rats; conditions: oral, 1x per day for 3 weeks, as a rule 25 mg/kg, difference ≤25% classified as an effect
Source text: as §1, §2
In spite of this, a significant decrease in the skeletal muscle mass (atrophy) of the immobilized extremity occurred, to be precise up to -35% in comparison with the contralateral nonimmobilized rear extremity. As the soleus muscle was the most severely affected, the changes in muscle weight after administration of preparation shown in Table 1 relate to this muscle. A difference of ≤25% between the right immobilized and left non-immobilized rear extremity was classified as an effect.
as §3

phosphodiesterase III = experiment: inhibition of phosphodiesterase III activity; type: biochemical; conditions: at 100 μM
Description: 5. Inhibition of phosphodiesterase III activity
The test is carried out using phosphodiesterase from Boehringer Mannheim (Mannheim, Germany), Order No. 108 243 according to the method of T. SAEKI, I. SAITO, Biochem. Pharm. 46, No. 5, […], pages 833-839.
All numerical values are indicated in % inhibition of the enzyme activity at 100 μM of the corresponding compound of the formula I.

[3] = lung strips, PAF, cumulative, 37° C.

SMILES | Work (performed work, right/left difference) [1] | IC50 [2] [µg/mL] | Force (force under the contraction curve, right/left difference) [1] | Muscle weight (right/left difference) (soleus muscle) | IC50 [2, 3] [µg/mL] | PDE III Inhibition (phosphodiesterase III) [%]
CCOP(=O)(CCCCn1cnc2c1c(=O)n(C)c(=O)n2C)OCC [Example 1, Diethyl [4-(1,3-dimethylxanthin-7-yl)butyl]phosphonate] | -8 Δ % | 3 to 9 (≈ 8.06 to 24.2 µM) |  |  |  | 
CCOP(=O)(CCCCn1cnc2c1c(=O)[nH]c(=O)n2C)OCC [Example 3, Diethyl [4-(3-methylxanthin-7-yl)butyl]phosphonate] | 0 Δ % |  | 0 Δ % | 0 Δ % |  | 
CCOP(=O)(CCCCn1cnc2c1c(=O)n(CCCCC(C)(C)O)c(=O)n2C)OCC [Example 5] | +10 Δ % |  | +10 Δ % | 0 Δ % |  | 
CCOCn1c(=O)c2c(ncn2CCCCP(=O)(OCC)OCC)n(C)c1=O [Example 6, Diethyl [4-(1-ethoxymethyl-3-methylxanthin-7-yl)butyl]phosphonate] | -4 Δ % |  | -4 Δ % | 0 Δ % |  | 
CCOP(=O)(CCCCn1c(=O)c2c(ncn2CCCCP(=O)(OCC)OCC)n(C)c1=O)OCC [Example 7, Diethyl 4-{7-[4-(diethoxyphosphoryl)butyl]-3-methylxanthin-1-yl}butyl-phosphonate] |  | 3 to 6 (≈ 5.45 to 10.9 µM) |  |  |  | 
CCOP(=O)(CCCn1cnc2c1c(=O)n(C)c(=O)n2C)OCC [Example 8, Diethyl [3-(1,3-dimethylxanthin-7-yl)propyl]phosphonate] | -7 Δ % | 5 to 10 (≈ 14 to 27.9 µM) | -11 Δ % |  |  | 
CCCCn1c(=O)c2c(ncn2CCCCCP(=O)(OCC)OCC)n(CCCC)c1=O [Example 10, Diethyl [5-(1,3-dibutylxanthin-7-yl)pentyl]phosphonate] | -9 Δ % |  | +1 Δ % | -13 Δ % |  | 
CCCn1c(=O)c2c(ncn2CCCCP(=O)(OCC)OCC)n(C)c1=O [Example 13] | -3 Δ % | 6 to 10 (≈ 15 to 25 µM) | +5 Δ % | -24 Δ % |  | 
CCOP(=O)(OCC)C(C)(C)CCCCn1c(=O)c2c(ncn2CCOC)n(C)c1=O [Example 22, Diethyl [5-(7-methoxyethyl-3-methylxanthin-1-yl)-1,1-dimethylpentyl]-phosphonate] | -13 Δ % |  | -3 Δ % | 0 Δ % |  | 
Cn1c(=O)n(CCCCP(=O)(O)O)c(=O)c2[nH]cnc21 [Example 25, Diammonium [4-(3-methylxanthin-1-yl)butyl]phosphonate] | -12 Δ % |  | +7 Δ % |  | 5 to 15 | 
CCOCn1cnc2c1c(=O)n(CCCCP(=O)(OCC)OCC)c(=O)n2C [Example 26, Diethyl [4-(7-ethoxymethyl-3-methylxanthin-1-yl)butyl]phosphonate] | -17 Δ % |  | -3 Δ % | -22 Δ % |  | 
CCOCn1cnc2c1c(=O)n(CCCCP(=O)(O)O)c(=O)n2C.N.N [Example 28, Diammonium [4-(7-ethoxymethyl-3-methylxanthin-1-yl)butyl]phosphonate] |  |  |  |  | 3 to 9 | 
CCOP(=O)(CCCCn1c(=O)c2c(ncn2CCOC)n(C)c1=O)OCC [Example 31, Diethyl [4-(7-methoxyethyl-3-methylxanthin-1-yl)butyl]phosphonate] |  | 6 to 10 (≈ 14.4 to 24 µM) |  |  |  | 
CCOCn1cnc2c1c(=O)n(CCCP(=O)(OCC)OCC)c(=O)n2C [Example 36, Diethyl [3-(7-ethoxymethyl-3-methylxanthin-1-yl)propyl]phosphonate] |  | 5 to 15 (≈ 12.4 to 37.3 µM) |  |  |  | 
CCOP(=O)(CCCCn1c(=O)c2[nH]cnc2n(CC)c1=O)OCC [Example 37, Diethyl [4-(3-ethylxanthin-1-yl)butyl]phosphonate] |  | 1 to 3 (≈ 2.69 to 8.06 µM) |  |  |  | 
CCOP(=O)(CCCCn1c(=O)c2c(ncn2CCC(C)C)n(C)c1=O)OCC [Example 41, Diethyl {4-[7-(3-methylbutyl)-3-methylxanthin-1-yl)butyl]phosphonate] |  |  |  |  |  | 56
CCOP(=O)(CCCCn1c(=O)c2c(ncn2CCOC)n(CC)c1=O)OCC [Example 45, Diethyl [4-(3-ethyl-7-methoxyethylxanthin-1-yl)butyl]phosphonate] |  | 1 to 3 (≈ 2.32 to 6.97 µM) |  |  |  | 
CCOP(=O)(CCCCn1c(=O)c2c(ncn2CC2CC2)n(C)c1=O)OCC [Example 50, Diethyl [4-(7-cyclopropylmethyl-3-methylxanthin-1-yl)butyl]phosphonate] |  |  |  |  |  | 51
CCOCn1cnc2c1c(=O)n(CCCCP(=O)(OCC)OCC)c(=O)n2Cc1ccccc1 [Example 53, Diethyl [4-(3-benzyl-7-ethoxymethylxanthin-1-yl)butyl]phosphonate] | +10 Δ % | 1 to 3 (≈ 2.03 to 6.09 µM) | -3 Δ % | 0 Δ % |  | 
CCOCn1cnc2c1c(=O)n(CCCCP(=O)(OCC)OCC)c(=O)n2CC [Example 54, Diethyl [4-(7-ethoxymethyl-3-ethylxanthin-1-yl)butyl]phosphonate] |  | 1 to 3 (≈ 2.32 to 6.97 µM) |  |  |  | 
CCOP(=O)(CCCCCn1c(=O)c2c(ncn2CCC(C)C)n(C)c1=O)OCC [Example 56] | 0 Δ % |  | 0 Δ % |  |  | 
CCCCn1c(=O)c2c(ncn2CP(C)(C)=O)n(CCCC)c1=O [Example 67, [1-(1,3-Dibutylxanthin-7-yl)methyl]dimethylphosphine Oxide] | -10 Δ % |  | -9 Δ % |  |  | 
CP(C)(=O)Cn1c(=O)c2c(ncn2CC2CC2)n(-c2ccccc2)c1=O [Example 71, [1-(7-Cyclopropylmethyl-3-phenylxanthin-1-yl)methyl]dimethylphosphine Oxide] | +5 Δ % |  | +4 Δ % | 0 Δ % |  | 
CCCCn1cnc2c1c(=O)n(CP(C)(C)=O)c(=O)n2CCCC [Example 72, [1-(3,7-Dibutylxanthin-1-yl)methyl]dimethylphosphine Oxide] | +4 Δ % |  | -2 Δ % | -18 Δ % |  | 

Source: patent US5728686A, “Alkylxanthine phosphonates and alkylxanthine phosphine oxides and their use as pharmaceuticals” (Hoechst Aktiengesellschaft, priority 1996, dated 1998)
